Patent publication US20110230477A1, “COMPOUNDS, PHARMACEUTICAL COMPOSITION AND METHODS FOR USE IN TREATING METABOLIC DISORDERS” (Euroscreen S.A., priority 2008, published 2011)

Target: T1, human GPR43 receptor (hGPR43) (Homo sapiens, UniProt O15552)
T1 construct: expressed in transfected cells
T1 sequence (O15552 1-330): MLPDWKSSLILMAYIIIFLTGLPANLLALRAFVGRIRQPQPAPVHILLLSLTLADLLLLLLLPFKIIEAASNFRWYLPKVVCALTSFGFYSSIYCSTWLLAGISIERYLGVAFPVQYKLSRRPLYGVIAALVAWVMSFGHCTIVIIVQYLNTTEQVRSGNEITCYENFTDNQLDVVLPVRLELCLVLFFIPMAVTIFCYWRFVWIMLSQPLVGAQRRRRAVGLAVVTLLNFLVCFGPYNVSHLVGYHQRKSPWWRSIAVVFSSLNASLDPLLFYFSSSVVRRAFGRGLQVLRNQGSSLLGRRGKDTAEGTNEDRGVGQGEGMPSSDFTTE
Experiment: GTPγS binding assay (SPA method)
Type: biochemical
Settings: membranes expressing hGPR43; assay performed in the presence of SCFA; read-out: EC50 (nM) in GTPγ35S assay
From the text: The following assay can be used for determination of GPR43 activation. When a GPCR is in its active state, either as a result of ligand binding or constitutive activation, the receptor couples to a G protein and stimulates the release of GDP and subsequent binding of GTP to the G protein. The alpha subunit of the G protein-receptor complex acts as a GTPase and slowly hydrolyses the GTP to GDP, at which point the receptor normally is deactivated. Activated receptors continue to exchange GDP for GTP. […] The assay uses the ability of GPCR to stimulate [^35S]GTPγS binding to membranes expressing the relevant receptors. The assay can, therefore, be used in the direct identification method to screen candidate compounds to endogenous or not endogenous GPCR.
Membrane extracts were prepared from cells expressing the human GPR43 receptor (hGPR43) as follows: the medium was aspirated and the cells were scraped from the plates in Ca^++ and Mg^++-free Phosphate-buffered saline (PBS). The cells were then centrifuged for 3 min at 1500 g and the pellets were resuspended in buffer A (15 mM Tris-HCl pH 7.5, 2 mM MgCl2, 0.3 mM EDTA, 1 mM EGTA) and homogenized in a glass homogenizer. […] Protein content was assayed by the Folin method.
The assay was performed in the presence of SCFA, and was used to determine the activity of the compounds of the invention.
The [^35S]GTPγS assay was incubated in 20 mM HEPES pH7.4, 100 mM NaCl, 10 μg/ml saponin, 30 mM of MgCl2, 10 μM of GDP, 5 μg membrane-expressing hGPR43, 250 μg of wheatgerm agglutinin beads (Amersham, ref: RPNQ001), a range concentration of compounds (from 30 μM to 1 nM) in a final volume of 100 μl for 30 min at room temperature. The SCFA propionate was used at 1 mM final concentration as positive control. The plates were then centrifuged for 10 minutes at 2000 rpm, incubated for 2 hours at room temperature and counted for 1 min in a scintillation counter (TopCount, PerkinElmer).

Row | Structure (SMILES) | EC50 [nM]
1 | O=C(O)C1CC=CCC1C(=O)Nc1nc(-c2ccccc2Cl)cs1 (stereo not drawn) [Compound 1, 6-(4-(2-chlorophenyl)thiazol-2-ylcarbamoyl)cyclohex-3-enecarboxylic acid] | 109
2 | O=C(O)C[C@@H](Cc1ccccc1)C(=O)Nc1nc(-c2ccccc2Cl)cs1 [Compound 2, (R)-3-benzyl-4-(4-(2-chlorophenyl)thiazol-2-ylamino)-4-oxobutanoic acid] | 273
3 | O=C(O)C[C@@H](Cc1ccccc1)C(=O)Nc1nc(-c2ccc(Cl)cc2Cl)cs1 [Compound 3, (R)-3-benzyl-4-(4-(2,4-dichlorophenyl)thiazol-2-ylamino)-4-oxobutanoic acid] | 653
4 | O=C(O)C[C@@H](Cc1ccccc1)C(=O)Nc1nc(-c2ccccc2F)cs1 [Compound 4, (R)-3-benzyl-4-(4-(2-fluorophenyl)thiazol-2-ylamino)-4-oxobutanoic acid] | 759
5 | O=C(O)C[C@@H](Cc1ccccc1)C(=O)Nc1nc(-c2ccc(Cl)c(Cl)c2)cs1 [Compound 5, (R)-3-benzyl-4-(4-(3,4-dichlorophenyl)thiazol-2-ylamino)-4-oxobutanoic acid] | 292
6 | N#Cc1ccc(-c2csc(NC(=O)[C@@H](CC(=O)O)Cc3ccccc3)n2)cc1 [Compound 8, (R)-3-benzyl-4-(4-(4-cyanophenyl)thiazol-2-ylamino)-4-oxobutanoic acid] | 563
7 | O=C(O)C[C@H](C(=O)Nc1nc(-c2ccccc2Cl)cs1)c1ccccc1 [Compound 9, (S)-4-(4-(2-chlorophenyl)thiazol-2-ylamino)-4-oxo-3-phenylbutanoic acid] | 60
8 | O=C(O)/C=C\C(=O)Nc1nc(-c2ccccc2Cl)cs1 [Compound 10, (Z)-4-(4-(2-chlorophenyl)thiazol-2-ylamino)-4-oxobut-2-enoic acid] | 405
9 | O=C(O)C[C@@H](Cc1ccccc1)C(=O)Nc1nc(-c2ccccc2)ns1 [Compound 11, (R)-3-benzyl-4-oxo-4-(3-phenyl-1,2,4-thiadiazol-5-ylamino)butanoic acid] | 680
10 | O=C(O)C[C@@H](Cc1ccccc1)C(=O)Nc1nc(-c2cccc(Cl)c2)cs1 [Compound 12, (R)-3-benzyl-4-(4-(3-chlorophenyl)thiazol-2-ylamino)-4-oxobutanoic acid] | 424
11 | O=C(O)C[C@@H](Cc1ccccc1)C(=O)Nc1nc(-c2cccc(C(F)(F)F)c2)cs1 [Compound 13, (R)-3-benzyl-4-oxo-4-(4-(3-(trifluoromethyl)phenyl)thiazol-2-ylamino)butanoic acid] | 875
12 | O=C(O)C[C@@H](Cc1ccccc1)C(=O)Nc1ccc(-c2ccccc2Cl)cn1 [Compound 15, (R)-3-benzyl-4-(5-(2-chlorophenyl)pyridin-2-ylamino)-4-oxobutanoic acid] | 426
13 | CCCC[C@H](CC(=O)O)C(=O)Nc1nc(-c2ccccc2Cl)cs1 [Compound 16, (R)-3-(4-(2-chlorophenyl)thiazol-2-ylcarbamoyl)heptanoic acid] | 389
14 | O=C(O)C[C@@H](Cc1ccc(F)cc1)C(=O)Nc1nc(-c2ccccc2Cl)cs1 [Compound 17, (R)-4-(4-(2-chlorophenyl)thiazol-2-ylamino)-3-(4-fluorobenzyl)-4-oxobutanoic acid] | 643
15 | O=C(O)C[C@@H](CC1CCCCC1)C(=O)Nc1nc(-c2ccccc2Cl)cs1 [Compound 18, (R)-4-(4-(2-chlorophenyl)thiazol-2-ylamino)-3-(cyclohexylmethyl)-4-oxobutanoic acid] | 104
16 | CC(C)C[C@H](CC(=O)O)C(=O)Nc1nc(-c2ccccc2Cl)cs1 [Compound 19, (R)-3-(4-(2-chlorophenyl)thiazol-2-ylcarbamoyl)-5-methylhexanoic acid] | 322
17 | O=C(O)C[C@@H](Cc1ccccc1)C(=O)Nc1nc(-c2ccccc2Cl)c(F)s1 [Compound 20, (R)-3-benzyl-4-(4-(2-chlorophenyl)-5-fluorothiazol-2-ylamino)-4-oxobutanoic acid] | 96
18 | CN(C(=O)[C@@H](CC(=O)O)Cc1ccccc1)c1nc(-c2ccccc2Cl)c(Cl)s1 [Compound 21, (R)-3-benzyl-4-((5-chloro-4-(2-chlorophenyl)thiazol-2-yl)(methyl)amino)-4-oxobutanoic acid] | 260
19 | C=CCN(C(=O)[C@@H](CC(=O)O)Cc1ccccc1)c1nc(-c2ccccc2Cl)cs1 [Compound 22, (R)-4-(allyl(4-(2-chlorophenyl)thiazol-2-yl)amino)-3-benzyl-4-oxobutanoic acid] | 365
20 | COC(=O)CN(C(=O)[C@@H](CC(=O)O)Cc1ccccc1)c1nc(-c2ccccc2Cl)cs1 [Compound 23, (R)-3-benzyl-4-((4-(2-chlorophenyl)thiazol-2-yl)(2-methoxy-2-oxoethyl)amino)-4-oxobutanoic acid] | 327
21 | CN(C(=O)[C@@H](CC(=O)O)Cc1ccccc1)c1nc(-c2ccccc2Cl)c(F)s1 [Compound 60, (R)-3-benzyl-4-((4-(2-chlorophenyl)-5-fluorothiazol-2-yl)(methyl)amino)-4-oxobutanoic acid] | 95
22 | CN(C(=O)[C@@H](CC(=O)O)Cc1ccccc1)c1nc(-c2ccccc2Cl)ns1 [Compound 83, (R)-3-benzyl-4-((3-(2-chlorophenyl)-1,2,4-thiadiazol-5-yl)(methyl)amino)-4-oxobutanoic acid] | 98

Now from value to compound:

Row | EC50 [nM] | Structure (SMILES)
23 | 113 | O=C(Nc1nc(-c2ccccc2Cl)cs1)[C@H]1CC=CC[C@H]1C(=O)O (relative stereo) [Compound 98, cis-6-(4-(2-chlorophenyl)thiazol-2-ylcarbamoyl)cyclohex-3-enecarboxylic acid]
24 | 142 | CN(C(=O)[C@H]1CC=CC[C@H]1C(=O)O)c1nc(-c2ccccc2Cl)cs1 (relative stereo) [Compound 100, cis-6-((4-(2-chlorophenyl)thiazol-2-yl)(methyl)carbamoyl)cyclohex-3-enecarboxylic acid]
25 | 67 | CN(C(=O)[C@H]1CCCC[C@H]1C(=O)O)c1nc(-c2ccccc2Cl)cs1 (relative stereo) [Compound 101, cis-2-((4-(2-chlorophenyl)thiazol-2-yl)(methyl)carbamoyl)cyclohexanecarboxylic acid]
26 | 37 | CN(C(=O)[C@@H](CC(=O)O)CC1CCCCC1)c1nc(-c2ccccc2Cl)cs1 [Compound 89, (R)-4-((4-(2-chlorophenyl)thiazol-2-yl)(methyl)amino)-3-(cyclohexylmethyl)-4-oxobutanoic acid]
27 | 88 | CC(C)C[C@H](CC(=O)O)C(=O)N(C)c1nc(-c2ccccc2Cl)cs1 [Compound 90, (R)-3-((4-(2-chlorophenyl)thiazol-2-yl)(methyl)carbamoyl)-5-methylhexanoic acid]
28 | 354 | CN(C(=O)[C@@H](CC(=O)O)Cc1ccccc1)c1nc(-c2ccccc2C#N)cs1 [Compound 91, (R)-3-benzyl-4-((4-(2-cyanophenyl)thiazol-2-yl)(methyl)amino)-4-oxobutanoic acid]
29 | 249 | O=C(O)C[C@@H](C(=O)Nc1nc(-c2ccccc2Cl)cs1)c1ccccc1 [Compound 92, (R)-4-(4-(2-chlorophenyl)thiazol-2-ylamino)-4-oxo-3-phenylbutanoic]
30 | 493 | O=C(O)C[C@@H](Cc1cccc(F)c1)C(=O)Nc1nc(-c2ccccc2Cl)cs1 [Compound 93, (R)-4-(4-(2-chlorophenyl)thiazol-2-ylamino)-3-(3-fluorobenzyl)-4-oxobutanoic acid]
31 | 200 | CC(C)[C@H](CC(=O)O)C(=O)N(C)c1nc(-c2ccccc2Cl)cs1 [Compound 94, (S)-3-((4-(2-chlorophenyl)thiazol-2-yl)(methyl)carbamoyl)-4-methylpentanoic acid]
32 | 249 | CCN(C(=O)[C@@H](CC(=O)O)Cc1ccccc1)c1nc(-c2ccccc2Cl)cs1 [Compound 96, (R)-3-benzyl-4-((4-(2-chlorophenyl)thiazol-2-yl)(ethyl)amino)-4-oxobutanoic acid]
33 | 567 | COc1ccc(CC(CC(=O)O)C(=O)N(C)c2nc(-c3ccccc3Cl)cs2)cc1 (stereo not drawn) [Compound 99, 4-((4-(2-chlorophenyl)thiazol-2-yl)(methyl)amino)-3-(4-methoxybenzyl)-4-oxobutanoic acid]
